Activity calls are given as the source filed them.
Columns and labels:
[1] = target: Heat shock protein HSP 90-alpha (Homo sapiens, UniProt P07900); type: functional, organism-based
[2] = target: T1, Polyadenylate-binding protein 1 (Homo sapiens, UniProt P11940); assay: MLLE domain peptide-binding blockers, IC50 – biochemical, fluorescence polarization, FITC-PAM2 peptide, dose response (AID 602259); type: functional; conditions: read-out: IC50_Mean
[3] = target: T1, Polyadenylate-binding protein 1; assay: MLLE binding blockers, Cy5 peptide tracer – biochemical, fluorescence polarization, Cy5-PAM2 peptide, secondary, miRNA deadenylation inhibitor project, dose response (AID 602260); type: functional; conditions: read-out: IC50_Mean
[4] = target: Genome polyprotein (dengue virus type 2, UniProt P29990); assay: flavivirus cap methylation enzyme inhibition – biochemical, confirmation dose response, primary screen (AID 588689); type: functional
Genome polyprotein, sequence (P29990 2492-3391 limits assumed): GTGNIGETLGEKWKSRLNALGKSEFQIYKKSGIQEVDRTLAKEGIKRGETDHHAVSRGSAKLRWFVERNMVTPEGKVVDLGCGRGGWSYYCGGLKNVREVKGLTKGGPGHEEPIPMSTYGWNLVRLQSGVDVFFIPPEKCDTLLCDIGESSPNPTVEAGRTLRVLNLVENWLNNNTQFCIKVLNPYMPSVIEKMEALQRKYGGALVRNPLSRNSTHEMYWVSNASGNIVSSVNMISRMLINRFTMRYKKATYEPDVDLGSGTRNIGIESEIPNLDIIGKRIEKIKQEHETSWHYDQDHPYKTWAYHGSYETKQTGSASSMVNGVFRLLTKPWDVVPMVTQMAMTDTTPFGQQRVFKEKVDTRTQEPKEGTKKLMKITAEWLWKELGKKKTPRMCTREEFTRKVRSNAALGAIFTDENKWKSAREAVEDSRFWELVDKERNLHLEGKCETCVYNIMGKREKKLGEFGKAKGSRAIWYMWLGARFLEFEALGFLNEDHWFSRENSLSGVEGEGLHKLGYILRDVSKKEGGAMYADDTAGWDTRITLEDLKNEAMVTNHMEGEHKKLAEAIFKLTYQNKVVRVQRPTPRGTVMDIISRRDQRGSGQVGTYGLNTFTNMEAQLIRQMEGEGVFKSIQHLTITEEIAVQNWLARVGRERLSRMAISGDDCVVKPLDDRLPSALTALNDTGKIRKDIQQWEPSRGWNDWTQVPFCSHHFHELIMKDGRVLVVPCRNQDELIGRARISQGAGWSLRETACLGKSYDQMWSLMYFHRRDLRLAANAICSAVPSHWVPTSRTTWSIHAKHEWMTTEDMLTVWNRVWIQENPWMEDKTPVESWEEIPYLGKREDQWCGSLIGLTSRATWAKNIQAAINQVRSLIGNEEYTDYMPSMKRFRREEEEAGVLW

[5] = target: Large T antigen (Simian virus 40, UniProt P03070); type: functional, Betapolyomavirus macacae;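 also: Confirmatory-stage PubChem screen for compounds that inhibit SV40 T antigen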
[6] = target: T2, Short transient receptor potential channel 4 (Mus musculus, UniProt Q9QUQ5); assay: block of DAMGO-driven TRPC4 calcium entry – cell-based, HEK293 TRPC4/mu-opioid, Fluo-4 calcium, dose response (AID 434942); type: functional;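 also: potency of inhibitors blocking the TRPC4 calcium response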
T2 sequence (Q9QUQ5 whole entry): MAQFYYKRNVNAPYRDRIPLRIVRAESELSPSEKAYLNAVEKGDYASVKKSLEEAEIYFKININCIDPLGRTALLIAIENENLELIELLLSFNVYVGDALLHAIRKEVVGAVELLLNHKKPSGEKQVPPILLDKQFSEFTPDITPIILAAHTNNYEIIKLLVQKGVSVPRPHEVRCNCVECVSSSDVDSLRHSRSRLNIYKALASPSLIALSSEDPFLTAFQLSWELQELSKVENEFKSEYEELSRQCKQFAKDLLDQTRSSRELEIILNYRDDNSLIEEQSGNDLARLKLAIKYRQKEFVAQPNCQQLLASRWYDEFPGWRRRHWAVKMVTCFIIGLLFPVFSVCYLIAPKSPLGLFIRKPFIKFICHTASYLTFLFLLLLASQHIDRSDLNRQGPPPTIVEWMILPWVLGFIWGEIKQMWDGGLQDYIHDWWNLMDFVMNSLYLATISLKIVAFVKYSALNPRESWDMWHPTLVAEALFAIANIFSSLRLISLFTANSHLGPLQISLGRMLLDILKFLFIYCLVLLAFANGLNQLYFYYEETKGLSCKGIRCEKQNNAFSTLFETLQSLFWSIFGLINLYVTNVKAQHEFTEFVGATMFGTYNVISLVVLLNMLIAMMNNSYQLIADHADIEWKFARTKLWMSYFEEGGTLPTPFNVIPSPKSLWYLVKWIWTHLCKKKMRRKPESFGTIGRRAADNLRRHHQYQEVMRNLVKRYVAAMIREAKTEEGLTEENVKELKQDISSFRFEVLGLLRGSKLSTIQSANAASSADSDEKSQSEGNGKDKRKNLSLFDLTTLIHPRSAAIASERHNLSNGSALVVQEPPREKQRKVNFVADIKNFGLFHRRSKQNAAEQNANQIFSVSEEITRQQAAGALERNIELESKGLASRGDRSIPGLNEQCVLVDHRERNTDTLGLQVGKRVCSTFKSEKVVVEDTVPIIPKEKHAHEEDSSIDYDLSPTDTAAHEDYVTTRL

[7] = target: Alkaline phosphatase, placental type (Homo sapiens, UniProt P05187); assay: human placental alkaline phosphatase inhibition – biochemical, luminescence, confirmation (AID 1512); type: functional
Alkaline phosphatase, placental type, sequence (P05187 whole entry, the tested form may be a part): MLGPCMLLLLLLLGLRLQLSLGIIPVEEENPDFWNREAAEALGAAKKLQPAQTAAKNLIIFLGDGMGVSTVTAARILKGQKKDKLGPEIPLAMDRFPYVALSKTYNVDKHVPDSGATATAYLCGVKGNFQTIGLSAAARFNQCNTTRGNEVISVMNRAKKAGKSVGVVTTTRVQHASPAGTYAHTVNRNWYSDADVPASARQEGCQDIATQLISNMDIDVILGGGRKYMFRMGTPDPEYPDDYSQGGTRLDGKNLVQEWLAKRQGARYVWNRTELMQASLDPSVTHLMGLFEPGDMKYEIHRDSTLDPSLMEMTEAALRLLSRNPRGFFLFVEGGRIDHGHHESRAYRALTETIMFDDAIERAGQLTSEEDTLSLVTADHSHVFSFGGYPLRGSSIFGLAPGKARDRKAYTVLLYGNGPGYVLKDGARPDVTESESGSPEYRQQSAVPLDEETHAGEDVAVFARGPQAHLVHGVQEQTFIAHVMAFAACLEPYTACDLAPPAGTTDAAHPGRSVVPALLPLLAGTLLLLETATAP

[8] = target: T3, RNA-binding protein pos-1 (Caenorhabditis elegans, UniProt G5EF15); assay: disruptors of C. elegans POS-1 RNA interaction – biochemical, fluorescence polarization, dose response (AID 1964);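 also: purified POS-1 fused to maltose binding protein made in E. coli; potency of compounds blocking POS-1 binding to fluorescent RNA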
T3 sequence (G5EF15 whole entry): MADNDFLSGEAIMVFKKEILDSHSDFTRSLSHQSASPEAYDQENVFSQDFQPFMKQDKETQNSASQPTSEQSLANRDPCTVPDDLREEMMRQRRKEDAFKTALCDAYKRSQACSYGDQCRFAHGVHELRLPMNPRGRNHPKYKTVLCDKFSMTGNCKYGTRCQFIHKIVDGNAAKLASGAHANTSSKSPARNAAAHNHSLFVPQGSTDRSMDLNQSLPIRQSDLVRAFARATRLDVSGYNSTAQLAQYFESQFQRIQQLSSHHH

[9] = target: T4, Zinc finger protein mex-5 (Caenorhabditis elegans, UniProt Q9XUB2); assay: potency of MEX-5 RNA-binding blockers – biochemical, C. elegans, fluorescence polarization, dose response (AID 1960)
T4 sequence (Q9XUB2 whole entry): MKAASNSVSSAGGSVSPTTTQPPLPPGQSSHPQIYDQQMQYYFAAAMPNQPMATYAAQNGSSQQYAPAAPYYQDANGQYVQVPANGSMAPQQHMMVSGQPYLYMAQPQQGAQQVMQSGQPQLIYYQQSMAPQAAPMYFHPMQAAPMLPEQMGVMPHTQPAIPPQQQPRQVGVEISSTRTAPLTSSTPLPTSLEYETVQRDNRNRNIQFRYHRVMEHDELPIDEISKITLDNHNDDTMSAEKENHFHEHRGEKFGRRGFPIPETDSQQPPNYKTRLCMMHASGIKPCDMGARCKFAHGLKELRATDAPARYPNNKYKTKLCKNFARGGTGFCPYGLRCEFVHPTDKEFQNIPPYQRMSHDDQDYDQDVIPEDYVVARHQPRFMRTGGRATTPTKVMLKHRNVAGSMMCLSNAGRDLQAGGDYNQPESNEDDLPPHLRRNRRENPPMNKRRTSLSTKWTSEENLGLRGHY

[10] = target: T5, Fatty acid synthase (Homo sapiens, UniProt P49327); assay: inhibition of human FAS-TE enzyme activity – biochemical, kinetic fluorescence intensity, dose response (AID 624326); type: functional;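 also: rate of fluorescence rise from hydrolysis of a fluorogenic O-methyl fluorescein ester substrate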
T5 sequence (P49327 whole entry): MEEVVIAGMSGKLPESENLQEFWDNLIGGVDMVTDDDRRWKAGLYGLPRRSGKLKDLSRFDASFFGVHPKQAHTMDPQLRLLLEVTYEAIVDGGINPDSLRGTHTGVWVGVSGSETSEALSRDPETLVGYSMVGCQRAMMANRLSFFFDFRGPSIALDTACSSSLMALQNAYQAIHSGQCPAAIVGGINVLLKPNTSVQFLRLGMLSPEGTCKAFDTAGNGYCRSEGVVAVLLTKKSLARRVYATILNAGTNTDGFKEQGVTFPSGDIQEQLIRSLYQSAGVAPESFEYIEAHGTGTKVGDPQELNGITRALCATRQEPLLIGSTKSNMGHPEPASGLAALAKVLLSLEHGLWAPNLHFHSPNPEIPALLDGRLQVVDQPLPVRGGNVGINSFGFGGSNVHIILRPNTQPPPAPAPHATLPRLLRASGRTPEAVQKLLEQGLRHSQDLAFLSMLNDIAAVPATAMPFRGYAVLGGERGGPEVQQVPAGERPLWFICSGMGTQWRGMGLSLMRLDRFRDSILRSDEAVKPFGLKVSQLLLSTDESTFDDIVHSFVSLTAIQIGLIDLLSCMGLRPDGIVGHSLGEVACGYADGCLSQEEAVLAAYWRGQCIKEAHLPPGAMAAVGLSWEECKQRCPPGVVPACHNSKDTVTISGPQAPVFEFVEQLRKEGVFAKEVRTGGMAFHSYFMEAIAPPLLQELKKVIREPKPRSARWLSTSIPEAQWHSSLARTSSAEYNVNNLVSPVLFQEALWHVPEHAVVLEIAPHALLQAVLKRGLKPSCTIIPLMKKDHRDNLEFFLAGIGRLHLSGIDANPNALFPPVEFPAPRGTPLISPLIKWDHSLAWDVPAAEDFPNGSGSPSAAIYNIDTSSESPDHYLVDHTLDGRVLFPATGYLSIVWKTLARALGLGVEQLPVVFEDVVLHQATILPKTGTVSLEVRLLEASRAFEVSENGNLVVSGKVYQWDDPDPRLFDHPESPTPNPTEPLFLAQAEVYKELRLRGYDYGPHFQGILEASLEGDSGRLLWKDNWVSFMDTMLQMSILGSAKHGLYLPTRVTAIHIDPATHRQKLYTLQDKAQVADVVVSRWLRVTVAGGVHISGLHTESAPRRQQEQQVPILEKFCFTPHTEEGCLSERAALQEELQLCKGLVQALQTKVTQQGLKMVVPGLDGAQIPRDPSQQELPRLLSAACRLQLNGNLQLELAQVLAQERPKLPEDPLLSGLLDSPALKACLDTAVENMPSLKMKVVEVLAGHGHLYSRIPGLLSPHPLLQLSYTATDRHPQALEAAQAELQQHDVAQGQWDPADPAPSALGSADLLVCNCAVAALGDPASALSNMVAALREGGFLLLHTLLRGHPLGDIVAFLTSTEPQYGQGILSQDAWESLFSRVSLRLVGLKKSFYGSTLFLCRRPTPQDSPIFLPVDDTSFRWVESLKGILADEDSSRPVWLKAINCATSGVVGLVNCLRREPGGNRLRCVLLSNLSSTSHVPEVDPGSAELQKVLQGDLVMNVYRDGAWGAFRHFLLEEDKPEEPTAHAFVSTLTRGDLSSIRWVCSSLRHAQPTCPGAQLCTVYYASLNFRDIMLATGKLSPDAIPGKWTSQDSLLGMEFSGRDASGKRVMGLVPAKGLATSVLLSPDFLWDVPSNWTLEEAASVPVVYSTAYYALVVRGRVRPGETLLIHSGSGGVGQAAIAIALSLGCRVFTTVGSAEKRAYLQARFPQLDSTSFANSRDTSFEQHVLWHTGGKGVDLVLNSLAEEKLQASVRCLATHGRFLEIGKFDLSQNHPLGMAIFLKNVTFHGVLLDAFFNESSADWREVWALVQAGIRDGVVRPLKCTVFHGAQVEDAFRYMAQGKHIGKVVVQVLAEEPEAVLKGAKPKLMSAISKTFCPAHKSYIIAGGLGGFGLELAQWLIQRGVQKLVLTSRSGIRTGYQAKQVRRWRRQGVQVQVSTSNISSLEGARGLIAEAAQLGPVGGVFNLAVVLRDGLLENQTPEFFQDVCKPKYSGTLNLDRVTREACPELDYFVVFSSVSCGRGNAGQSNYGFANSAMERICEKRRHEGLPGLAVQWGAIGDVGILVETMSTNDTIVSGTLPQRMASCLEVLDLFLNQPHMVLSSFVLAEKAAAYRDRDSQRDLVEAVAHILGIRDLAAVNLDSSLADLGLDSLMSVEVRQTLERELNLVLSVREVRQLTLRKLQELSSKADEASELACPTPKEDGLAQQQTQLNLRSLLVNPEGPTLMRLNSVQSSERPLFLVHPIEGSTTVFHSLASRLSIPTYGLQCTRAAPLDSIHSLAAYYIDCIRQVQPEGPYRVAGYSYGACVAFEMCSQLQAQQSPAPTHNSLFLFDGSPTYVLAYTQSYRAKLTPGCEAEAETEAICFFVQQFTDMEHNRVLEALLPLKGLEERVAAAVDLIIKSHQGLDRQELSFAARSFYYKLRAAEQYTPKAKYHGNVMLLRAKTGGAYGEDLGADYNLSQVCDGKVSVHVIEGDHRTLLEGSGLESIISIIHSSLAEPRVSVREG

[11] = target: T5, Fatty acid synthase; assay: inhibition of human FAS-TE enzyme activity – biochemical, endpoint fluorescence intensity, uHTS hits, dose response (AID 624327); type: functional;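 also: fluorescence from hydrolysis of an O-methyl fluorescein acyl ester substrate by the enzyme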
[12] = Luminescence Cell-Based Dose Confirmation HTS to Identify Inhibitors of Platelet Dense Granule Release. [Related pubchem assays: 1663 (Primary HTS), 1678 (Summary of Project)]; type: functional
[13] = target: Luciferin 4-monooxygenase (Photinus pyralis, UniProt P08659); assay: inhibition of purified Photinus pyralis luciferase – biochemical, luminescence, dose response (AID 1891)
[14] = target: T6, High affinity choline transporter 1 (Homo sapiens, UniProt Q9GZV3); assay: human choline transporter blockers, potency – cell-based, 5-point CRC, membrane potential dye, dose response (AID 504840); type: functional
T6 sequence (Q9GZV3 whole entry): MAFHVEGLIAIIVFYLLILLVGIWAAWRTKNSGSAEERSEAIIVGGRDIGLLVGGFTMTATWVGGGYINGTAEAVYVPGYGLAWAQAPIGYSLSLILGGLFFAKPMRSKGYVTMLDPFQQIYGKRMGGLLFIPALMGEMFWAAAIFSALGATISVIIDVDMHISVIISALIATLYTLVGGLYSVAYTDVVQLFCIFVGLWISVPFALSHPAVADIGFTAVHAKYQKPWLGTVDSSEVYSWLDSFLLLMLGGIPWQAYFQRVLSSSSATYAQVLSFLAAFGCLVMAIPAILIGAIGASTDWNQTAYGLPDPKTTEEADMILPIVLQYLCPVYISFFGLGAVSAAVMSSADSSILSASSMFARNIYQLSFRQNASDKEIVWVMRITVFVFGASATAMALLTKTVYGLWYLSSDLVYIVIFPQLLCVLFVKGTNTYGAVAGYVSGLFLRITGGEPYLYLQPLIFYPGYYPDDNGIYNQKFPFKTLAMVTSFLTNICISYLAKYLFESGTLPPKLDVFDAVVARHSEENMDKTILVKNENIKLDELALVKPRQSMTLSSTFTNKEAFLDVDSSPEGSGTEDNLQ

[15] = Luminescence Cell-Based Dose Retest to Confirm Inhibitors of Cancer Stem Cells. [Related pubchem assays (depositor defined):AID2717, AID2721]; type: functional; conditions: Homo sapiens

T1 sequence (P11940 whole entry, the tested form may be a part): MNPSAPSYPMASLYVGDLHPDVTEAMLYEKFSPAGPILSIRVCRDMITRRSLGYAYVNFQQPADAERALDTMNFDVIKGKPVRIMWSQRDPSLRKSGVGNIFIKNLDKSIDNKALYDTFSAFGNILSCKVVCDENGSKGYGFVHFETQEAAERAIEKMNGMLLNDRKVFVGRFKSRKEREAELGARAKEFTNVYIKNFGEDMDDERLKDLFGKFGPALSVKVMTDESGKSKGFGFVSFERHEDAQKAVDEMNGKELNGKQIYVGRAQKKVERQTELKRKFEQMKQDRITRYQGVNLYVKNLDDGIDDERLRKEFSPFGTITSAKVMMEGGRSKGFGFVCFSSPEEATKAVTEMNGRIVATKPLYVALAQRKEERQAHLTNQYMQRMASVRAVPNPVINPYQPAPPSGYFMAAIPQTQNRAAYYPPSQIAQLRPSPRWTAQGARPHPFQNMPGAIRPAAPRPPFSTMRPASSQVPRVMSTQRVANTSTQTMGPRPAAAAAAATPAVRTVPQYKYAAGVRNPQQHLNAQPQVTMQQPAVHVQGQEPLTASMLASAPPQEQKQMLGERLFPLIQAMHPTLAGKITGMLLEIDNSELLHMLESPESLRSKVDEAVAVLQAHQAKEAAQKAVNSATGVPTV

O=C(/C=C/c1cccc([N+](=O)[O-])c1)c1ccco1
AC50 [1]: 4 µM (active)

COC(=O)c1sc(=S)sc1C(=O)OC
IC50 [2]: > 66 µM (inactive)
IC50 [3]: > 66 µM (inactive)

C#CCOc1ccc(/C=C2/C(=O)ON=C2C)cc1OCC
IC50 [4]: > 100 µM (active)

CCCSc1nc(O)c(C(c2ccc(OC)c(O)c2)c2c(O)nc(SCCC)n(C)c2=O)c(=O)n1C
IC50 [5]: > 100 µM (active)
IC50 [4]: 42.1 µM (active)

c1ccc(COC(CN2CCCCCC2)CN2CCCCCC2)cc1
EC50 [6]: 6.68 µM (active)

CCN(CC)CCCNC(=O)CCC(=O)NNc1nc2ccccc2c2nc(C)nn12
IC50 [7]: > 100 µM (inactive)
EC50 [8]: 160 µM (active)
EC50 [9]: 0.93 µM (active)

COc1ccc([N+](=O)[O-])cc1NC(=O)CC(c1ccccc1)c1ccccc1
IC50 [10]: 32.8 µM (inactive)
IC50 [11]: 60.1 µM (inactive)

Cc1ccc(OCCOc2cccc(C=C3C(=O)NC(=O)NC3=O)c2)c(C)c1
IC50 [4]: 35.5 µM (active)

CC1(C)N=C(SCC(=O)Nc2ccccc2)C(c2ccc(Cl)cc2)=N1
IC50 [2]: > 66 µM (inactive)
IC50 [3]: > 66 µM (inactive)

Cc1c(CCOC(=O)c2ccc([N+](=O)[O-])cc2)sc[n+]1CC(=O)c1ccccc1
EC50 [6]: 5.96 µM (active)

COc1ccc(-c2nnc3n(CCc4ccccc4)c(=O)c4ccccc4n23)c(OC)c1
EC50 [12]: > 112 µM (not active)
AC50 [1]: 7.83 µM (active)
EC50 [13]: > 112 µM (not active)

COc1ccccc1N1CCc2c(C)nc3c(OC)cccc3c21
EC50 [6]: 4.73 µM (active)

CC(C)c1ccccc1NC(=O)COC(=O)c1cc([N+](=O)[O-])ccc1N1CCOCC1
IC50 [10]: 2.46 µM (active)
IC50 [11]: 2.95 µM (active)

Cc1cccc(-n2cc(CN3CCN(Cc4nccn4C)CC3)c(-c3cccc(F)c3)n2)c1
IC50 [14]: 13.5 µM (active)

CCCc1cc(=O)[nH]c(-n2nc3c(c2O)CCCC3)n1
IC50 [7]: > 100 µM (inactive)

CC(=O)n1c2ccccc2c2c1c1ccccc1n2C
IC50 [2]: > 66 µM (inactive)
IC50 [3]: > 66 µM (inactive)

OCC1(Cc2ccccc2)CCN(Cc2ccc(C(F)(F)F)cc2)CC1
EC50 [6]: 2.11 µM (active)

Cc1ccc(N2C(=O)CC(SCC(=O)Nc3ccc(S(N)(=O)=O)cc3)C2=O)cc1 (stereo not given)
IC50 [2]: > 66 µM (inactive)
IC50 [3]: > 66 µM (inactive)

COc1ccc(C(=O)COC(=O)c2cc([N+](=O)[O-])ccc2N2CCOCC2)c(OC)c1
AC50 [1]: 10.2 µM (active)
IC50 [10]: 1.63 µM (active)
IC50 [11]: 1.66 µM (active)

CCC(C)N/C=C1/C(=O)NC(=O)N(c2ccccc2)C1=O (stereo not given)
IC50 [2]: > 66 µM (inactive)
IC50 [3]: > 66 µM (inactive)

O=C(NC1(C(F)(F)F)Oc2cc(Cl)c(Cl)cc2O1)N1CCC2(CC1)OCCO2
IC50 [7]: > 100 µM (inactive)

CC(NCCC(Cc1ccccc1)c1ccco1)c1ccccc1 (stereo not given)
EC50 [6]: 1.68 µM (active)

O=C(NCCN1CCCC1)c1ccc2c(c1)N(Cc1cccc(Cl)c1)C(=O)c1ccccc1S2(=O)=O
AC50 [15]: > 195 µM (inactive)
IC50 [14]: 11.5 µM (active)

COc1ccc2c(c1)OC[C@H]1[C@H]2N2C(=O)c3cc(C)ccc3NC(=O)[C@@]2(C)[C@H]1c1ccccc1
AC50 [1]: 1.86 µM (active)

Cc1cc(-c2ccc(/C=N/n3cnnc3)o2)c(C)c([N+](=O)[O-])c1
IC50 [10]: 9.46 µM (active)
IC50 [11]: 12.5 µM (active)

C/C(=N\NC(=O)c1nnn(-c2nonc2N)c1-c1ccc(Cl)c(Cl)c1)c1ccncc1
IC50 [10]: 20.9 µM (inactive)
IC50 [11]: 28 µM (inactive)

Cn1nnc2c(C(N)=O)ncn2c1=O [TEMOZOLOMIDE]
IC50 [2]: 43.4 µM (inactive)
IC50 [3]: > 66 µM (inactive)

Source: ChEMBL document CHEMBL1201862, “PubChem BioAssay data set” (2004)
